This note sets out measurements from patent US20040229777A1, “Crystalline phases of a potent HCV inhibitor” (Boehringer Ingelheim International GmbH, priority 2003, published 2004).

A short description of data set [1]: XRPD analysis of the crystal phase under varied relative humidity and elevated temperature. Format: physicochemical. The text has this: This behavior is typical of channel hydrates, whereby water resides within the channels in the crystal lattice and can readily move in and out of the structure. Type A is therefore believed to be a type of channel hydrate. Type B is also a variable hydrate crystalline phase of Compound (1), i.e., the number of water molecules associated with each molecule of Compound (1) may vary. […] For this reason, it is preferable to maintain Type B at a modest RH level of about 20% to 40%. X-ray powder diffraction analyses were conducted on a Bruker AXS X-Ray Powder Diffractometer Model D8 Advance, available from Bruker AXS, Inc. of Madison, Wis., using CuKα radiation. The instrument is equipped with a long fine focus x-ray tube. The tube power was set to 40 kV and 30 mA. The instrument was operated in parallel beam mode with a Gobel Mirror, using a 0.6 mm exit slit, a 0.40 soller slit, a LiF flat crystal diffracted beam monochromator and a NaI scintillation detector. A detector scan was run using a tube angle of 1° 2θ. Step scans were run from 2 to 35° 2θ, at 0.050 per step, 4 sec per step. A reference quartz standard was used to check instrument alignment. Samples were prepared for analysis by filing a zero background quartz holder.

Data set [2] in a line: Moisture adsorption/desorption isotherm (VTI SGA-100 moisture balance). Format: physicochemical. As to conditions: 25° C.; adsorption 5 to 95% RH, desorption 95 to 5% RH; samples dried at 50° C. prior to analysis. The text has this:
It is clear from FIG. 3 that the moisture content of Type A varies depending on the relative humidity of its environment, up to a maximum water sorption level of about 3.7% by weight. […] It is clear from FIG. 7 that the moisture content of Type B varies depending on the relative humidity of its environment, up to a maximum water sorption level of about 4.5% by weight. Moisture adsorption/desorption data were collected on a VTI SGA-100 moisture balance system, available from VTI Corporation of Hialeah, Fla. For adsorption isotherms, an adsorption range of 5 to 95% relative humidity and a desorption range of 95 to 5% relative humidity in 5% relative humidity increments were used for analysis. The samples were dried at 50° C. prior to analysis. The analyses were conducted at 25° C. Equilibrium criteria used for the analysis were less than 0.001 percent change in 5 minutes with a maximum equilibration time of 1200 minutes if the weight criterion was not met.

As for `COc1ccc2c(O[C@@H]3C[C@H]4C(=O)N[C@]5(C(=O)O)C[C@H]5/C=C\CCCCC[C@H](NC(=O)OC5CCCC5)C(=O)N4C3)cc(-c3csc(NC(C)C)n3)nc2c1` [Type A], the “crystal structure behaviour under varied humidity and temperature” value in data set [1] (dry nitrogen up to ˜85% RH and elevated temperature (up to 160° C.)) is “crystal lattice expands at higher RH levels while maintaining its overall structure”. In data set [2], the “maximum water sorption level” value was “about 3.7 % by weight”.

With `COc1ccc2c(O[C@@H]3C[C@H]4C(=O)N[C@]5(C(=O)O)C[C@H]5/C=C\CCCCC[C@H](NC(=O)OC5CCCC5)C(=O)N4C3)cc(-c3csc(NC(C)C)n3)nc2c1` [Type B], the “crystal structure behaviour under varied humidity and temperature” value in data set [1] (low relative humidity (e.g., dry nitrogen) and/or elevated temperature (˜90° C.)) is “readily loses water resulting in a partial collapse of its crystal structure”. The “maximum water sorption level” value in data set [2] was “about 4.5 % by weight”.
